According to PubChem BioAssay (NCI):
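The compound was tested at five concentrations on cells cultured in 96-well plates, with a 48-hour exposure period. TGI marks complete inhibition of growth.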

What was measured:
Assay in all cases: inhibition of tumour cell growth, NCI panel, 48 h
786-0 renal = tested on: 786-0 renal
A498 renal = tested on: A498 renal
A549 NSCLC = tested on: A549 NSCLC
ACHN renal = tested on: ACHN renal
CAKI-1 renal = tested on: CAKI-1 renal
CCRF-CEM leukemia = tested on: CCRF-CEM leukemia
COLO 205 colon = tested on: COLO 205 colon
DLD-1 colon = tested on: DLD-1 colon
DMS 114 small cell lung = tested on: DMS 114 small cell lung
EKVX NSCLC = tested on: EKVX NSCLC
HCC-2998 colon = tested on: HCC-2998 colon
HCT-116 colon = tested on: HCT-116 colon
HCT-15 colon = tested on: HCT-15 colon
HL-60(TB) leukemia = tested on: HL-60(TB) leukemia
HOP-18 NSCLC = tested on: HOP-18 NSCLC
HOP-62 NSCLC = tested on: HOP-62 NSCLC
HOP-92 NSCLC = tested on: HOP-92 NSCLC
HT29 colon = tested on: HT29 colon
IGROV1 ovarian = tested on: IGROV1 ovarian
K-562 leukemia = tested on: K-562 leukemia
KM12 colon = tested on: KM12 colon
KM20L2 colon = tested on: KM20L2 colon
LOX IMVI melanoma = tested on: LOX IMVI melanoma
LXFL 529 NSCLC = tested on: LXFL 529 NSCLC
M14 melanoma = tested on: M14 melanoma
M19-MEL melanoma = tested on: M19-MEL melanoma
MALME-3M melanoma = tested on: MALME-3M melanoma
MOLT-4 leukemia = tested on: MOLT-4 leukemia
NCI-H226 lung = tested on: NCI-H226 lung
NCI-H23 lung = tested on: NCI-H23 lung
NCI-H460 lung = tested on: NCI-H460 lung
NCI-H522 lung = tested on: NCI-H522 lung
OVCAR-3 ovarian = tested on: OVCAR-3 ovarian
OVCAR-4 ovarian = tested on: OVCAR-4 ovarian
OVCAR-5 ovarian = tested on: OVCAR-5 ovarian
OVCAR-8 ovarian = tested on: OVCAR-8 ovarian
RPMI-8226 leukemia = tested on: RPMI-8226 leukemia
RXF 393 renal = tested on: RXF 393 renal
SF-268 CNS = tested on: SF-268 CNS
SF-295 CNS = tested on: SF-295 CNS
SF-539 CNS = tested on: SF-539 CNS
SK-MEL-2 melanoma = tested on: SK-MEL-2 melanoma
SK-MEL-28 melanoma = tested on: SK-MEL-28 melanoma
SK-OV-3 ovarian = tested on: SK-OV-3 ovarian
SN12C renal = tested on: SN12C renal
SNB-19 CNS = tested on: SNB-19 CNS
SNB-78 CNS = tested on: SNB-78 CNS
SR leukemia = tested on: SR leukemia
SW-620 colon = tested on: SW-620 colon
TK-10 renal = tested on: TK-10 renal
U251 CNS = tested on: U251 CNS
UACC-257 melanoma = tested on: UACC-257 melanoma
UACC-62 melanoma = tested on: UACC-62 melanoma
UO-31 renal = tested on: UO-31 renal
DMS 273 small cell lung = tested on: DMS 273 small cell lung
SK-MEL-5 melanoma = tested on: SK-MEL-5 melanoma
SNB-75 CNS = tested on: SNB-75 CNS

`CCc1cccc(CC)c1NC(=O)C(=O)Cc1nc2ccccc2o1` gave a TGI (786-0 renal) greater than 100 µM, a TGI (A498 renal) greater than 100 µM and a TGI (A549 NSCLC) greater than 100 µM. For the same compound, the TGI (ACHN renal) was greater than 100 µM, the TGI (CAKI-1 renal) was greater than 100 µM and the TGI (CCRF-CEM leukemia) was greater than 100 µM. It also gave a TGI (COLO 205 colon) greater than 100 µM, a TGI (DLD-1 colon) greater than 100 µM and a TGI (DMS 114 small cell lung) greater than 100 µM. The TGI (EKVX NSCLC) was greater than 100 µM, the TGI (HCC-2998 colon) was greater than 100 µM and the TGI (HCT-116 colon) was greater than 100 µM. It also gave a TGI (HCT-15 colon) greater than 100 µM, a TGI (HL-60(TB) leukemia) greater than 100 µM and a TGI (HOP-18 NSCLC) greater than 100 µM. For the same compound, the TGI (HOP-62 NSCLC) was greater than 100 µM, the TGI (HOP-92 NSCLC) was greater than 100 µM and the TGI (HT29 colon) was greater than 100 µM. For the same compound, the TGI (IGROV1 ovarian) was greater than 100 µM, the TGI (K-562 leukemia) was greater than 100 µM and the TGI (KM12 colon) was greater than 100 µM. For the same compound, the TGI (KM20L2 colon) was greater than 100 µM, the TGI (LOX IMVI melanoma) was greater than 100 µM and the TGI (LXFL 529 NSCLC) was greater than 100 µM. The TGI (M14 melanoma) was greater than 100 µM, the TGI (M19-MEL melanoma) was greater than 100 µM and the TGI (MALME-3M melanoma) was greater than 100 µM. For the same compound, the TGI (MOLT-4 leukemia) was greater than 100 µM, the TGI (NCI-H226 lung) was greater than 100 µM and the TGI (NCI-H23 lung) was greater than 100 µM. It also gave a TGI (NCI-H460 lung) greater than 100 µM, a TGI (NCI-H522 lung) greater than 100 µM and a TGI (OVCAR-3 ovarian) greater than 100 µM. It also gave a TGI (OVCAR-4 ovarian) greater than 100 µM, a TGI (OVCAR-5 ovarian) greater than 100 µM and a TGI (OVCAR-8 ovarian) greater than 100 µM. The TGI (RPMI-8226 leukemia) was greater than 100 µM, the TGI (RXF 393 renal) was greater than 100 µM and the TGI (SF-268 CNS) was greater than 100 µM. It also gave a TGI (SF-295 CNS) greater than 100 µM, a TGI (SF-539 CNS) greater than 100 µM and a TGI (SK-MEL-2 melanoma) greater than 100 µM. For the same compound, the TGI (SK-MEL-28 melanoma) was greater than 100 µM, the TGI (SK-OV-3 ovarian) was greater than 100 µM and the TGI (SN12C renal) was greater than 100 µM. It also gave a TGI (SNB-19 CNS) greater than 100 µM, a TGI (SNB-78 CNS) greater than 100 µM and a TGI (SR leukemia) greater than 100 µM. For the same compound, the TGI (SW-620 colon) was greater than 100 µM, the TGI (TK-10 renal) was greater than 100 µM and the TGI (U251 CNS) was greater than 100 µM. It also gave a TGI (UACC-257 melanoma) greater than 100 µM, a TGI (UACC-62 melanoma) greater than 100 µM and a TGI (UO-31 renal) greater than 100 µM.
`CC12CCC3(C1)[C@H](CC2=O)C[C@@H](OC(=O)c1ccccc1)C1C(C)(CO)CCC[C@@]13C` (stereo not given in full) showed a TGI (786-0 renal) greater than 100 µM, a TGI (A498 renal) greater than 100 µM and a TGI (A549 NSCLC) of 97 µM. It also gave a TGI (ACHN renal) greater than 100 µM, a TGI (CAKI-1 renal) greater than 27.2 µM and a TGI (CCRF-CEM leukemia) greater than 54.1 µM. The TGI (COLO 205 colon) was 27.1 µM, the TGI (DLD-1 colon) was greater than 100 µM and the TGI (DMS 114 small cell lung) was 19.5 µM. It also gave a TGI (DMS 273 small cell lung) of 13.3 µM, a TGI (EKVX NSCLC) greater than 100 µM and a TGI (HCC-2998 colon) greater than 100 µM. It also gave a TGI (HCT-116 colon) greater than 100 µM, a TGI (HCT-15 colon) greater than 100 µM and a TGI (HL-60(TB) leukemia) of 8.38 µM. The TGI (HOP-18 NSCLC) was greater than 100 µM, the TGI (HOP-62 NSCLC) was greater than 100 µM and the TGI (HOP-92 NSCLC) was 58.3 µM. The TGI (HT29 colon) was greater than 100 µM, the TGI (IGROV1 ovarian) was greater than 100 µM and the TGI (K-562 leukemia) was greater than 100 µM. For the same compound, the TGI (KM12 colon) was greater than 100 µM, the TGI (KM20L2 colon) was greater than 100 µM and the TGI (LOX IMVI melanoma) was greater than 100 µM. The TGI (LXFL 529 NSCLC) was greater than 100 µM, the TGI (M14 melanoma) was greater than 100 µM and the TGI (M19-MEL melanoma) was greater than 100 µM. It also gave a TGI (MALME-3M melanoma) greater than 100 µM, a TGI (MOLT-4 leukemia) of 19.7 µM and a TGI (NCI-H226 lung) of 65.9 µM. For the same compound, the TGI (NCI-H23 lung) was greater than 100 µM, the TGI (NCI-H460 lung) was greater than 45.8 µM and the TGI (NCI-H522 lung) was 17.9 µM. It also gave a TGI (OVCAR-3 ovarian) greater than 52.3 µM, a TGI (OVCAR-4 ovarian) greater than 72.1 µM and a TGI (OVCAR-5 ovarian) of 95.7 µM. The TGI (OVCAR-8 ovarian) was greater than 100 µM, the TGI (RPMI-8226 leukemia) was 12 µM and the TGI (RXF 393 renal) was 47.6 µM. The TGI (SF-268 CNS) was greater than 100 µM, the TGI (SF-295 CNS) was greater than 38.9 µM and the TGI (SF-539 CNS) was greater than 100 µM. The TGI (SK-MEL-2 melanoma) was greater than 90.8 µM, the TGI (SK-MEL-28 melanoma) was greater than 100 µM and the TGI (SK-MEL-5 melanoma) was 1.71 µM. The TGI (SK-OV-3 ovarian) was greater than 89.1 µM, the TGI (SN12C renal) was greater than 100 µM and the TGI (SNB-19 CNS) was greater than 100 µM. For the same compound, the TGI (SNB-75 CNS) was greater than 100 µM, the TGI (SNB-78 CNS) was greater than 100 µM and the TGI (SW-620 colon) was greater than 100 µM. The TGI (TK-10 renal) was greater than 100 µM, the TGI (U251 CNS) was greater than 100 µM and the TGI (UACC-257 melanoma) was 23.8 µM. The TGI (UACC-62 melanoma) was greater than 89 µM and the TGI (UO-31 renal) was 61.7 µM.
